The source of these data is ChEMBL document CHEMBL1201862, “PubChem BioAssay data set” (2004).

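Cultured in 96-well plates, cells were exposed to test compound for 48 hours across five concentrations. At the GI50, growth is halved.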 Calls of active or inactive are those of the source. Cut-off read from the data, not from the text of the source: active = GI50 up to about 1.1 µM and inactive = higher.

Some test systems named below: UACC-62; IGROV-1; SF-539; K562; DU-145; NCI-H23; NCI-H226; SR; A498; LOX IMVI; OVCAR-3; MDA-MB-435; SF-295; BT-549; SNB-75; MDA-N; NCI/ADR-RES; HL-60; MCF7; Malme-3M.
What all share (assay): inhibition of tumour cell growth, NCI panel, 48 h

Turning to `CC(CN(C)C)C(=O)/C=C/c1ccc(Cl)c(Cl)c1` (stereo not drawn), the GI50 was 1.8 µM (inactive) with UACC-62; 1.78 µM (inactive) in the experiment on IGROV-1; 1.46 µM (inactive) in the experiment with SF-539; 3.01 µM (inactive) with K562; > 100 µM (inactive) in the experiment on DU-145; 2.11 µM (inactive) in the experiment with NCI-H23. In addition, the GI50 in the experiment on NCI-H226 was 2.2 µM (inactive); in the experiment with SR, 1.02 µM (active); in the experiment with A498, 1.78 µM (inactive); in the experiment with LOX IMVI, 1.56 µM (inactive); in the experiment on OVCAR-3, 1.78 µM (inactive); in the experiment with MDA-MB-435 it was 1.63 µM (inactive). The GI50 in the experiment on SF-295 is 3.44 µM (inactive); in the experiment on BT-549, 2.14 µM (inactive); with SNB-75 it was 19.1 µM (inactive); with MDA-N it was 2.07 µM (inactive); in the experiment on NCI/ADR-RES, 3.52 µM (inactive); with HL-60, 1.62 µM (inactive). For the same molecule, the GI50 in the experiment with MCF7 is 0.307 µM (active).
`C#C[C@]1(O)CC[C@H]2[C@@H]3CCC4=C/C(=N/OC(=O)c5cccc6c(=O)c7ccccc7[nH]c56)CCC4[C@H]3CC[C@@]21CC` (stereo partly drawn): the GI50 in the experiment with UACC-62 is 20.4 µM (inactive); with IGROV-1, 27.3 µM (inactive); in the experiment with K562, 10.9 µM (inactive); in the experiment on DU-145 it was 55.2 µM (inactive); in the experiment with Malme-3M, 34.7 µM (inactive); with NCI-H23, 26.4 µM (inactive). The GI50 with NCI-H226 is > 48.9 µM (inactive); in the experiment on SR, 3.25 µM (inactive); in the experiment on A498, 10.1 µM (inactive); in the experiment with LOX IMVI, 15.7 µM (inactive); with OVCAR-3, 18.7 µM (inactive); in the experiment on MDA-MB-435, 26.5 µM (inactive). In addition, the GI50 with SF-295 was 3.69 µM (inactive); in the experiment on BT-549 it was 17 µM (inactive); in the experiment with SNB-75, 9.18 µM (inactive); with MDA-N it was 26.4 µM (inactive); with NCI/ADR-RES, 15.8 µM (inactive); with HL-60, 2.44 µM (inactive). The GI50 with MCF7 was 25.1 µM (inactive).
Take `Cc1cc(C)c(C)c(-n2[nH]c(=O)n(C)c2=O)c1C`: the GI50 with UACC-62, in the experiment with IGROV-1, in the experiment with SF-539, with K562, in the experiment on DU-145 and with NCI-H23 was > 100 µM (inactive) in each case. In addition, the GI50 was > 100 µM (inactive) in the experiment on NCI-H226; > 100 µM (inactive) in the experiment on SR; > 100 µM (inactive) with A498; 99.3 µM (inactive) in the experiment on LOX IMVI; > 100 µM (inactive) in the experiment on OVCAR-3; > 100 µM (inactive) with MDA-MB-435. Also, the GI50 in the experiment on SF-295, in the experiment with BT-549, with MDA-N, in the experiment with NCI/ADR-RES, in the experiment with HL-60 and in the experiment on MCF7 was > 100 µM (inactive) each time.
Take `O=C(CCC1CCCCC1)NCc1ccc(C(=O)O)cc1`: the GI50 in the experiment on UACC-62, in the experiment with IGROV-1, in the experiment with SF-539, in the experiment on K562, with DU-145 and in the experiment with Malme-3M was > 100 µM (inactive) each time. For the same molecule, the GI50 in the experiment on NCI-H23, in the experiment with NCI-H226, with SR, with A498, with LOX IMVI and in the experiment on OVCAR-3 was > 100 µM (inactive) each time. For the same molecule, the GI50 in the experiment on MDA-MB-435, with SF-295, with BT-549, in the experiment with SNB-75, with MDA-N and in the experiment on NCI/ADR-RES was > 100 µM (inactive) each time. Moreover, the GI50 in the experiment on MCF7 is > 100 µM (inactive).
In the case of `OCC(O)COCn1cc(Cn2ncc3c(O)ncnc32)nn1` (stereo not drawn), the GI50 in the experiment with UACC-62, with IGROV-1, with SF-539, with K562, with DU-145 and with NCI-H23 was > 100 µM (inactive) in each case. For the same molecule, the GI50 in the experiment with NCI-H226, in the experiment with SR, in the experiment on A498, in the experiment with LOX IMVI, in the experiment with OVCAR-3 and in the experiment on MDA-MB-435 was > 100 µM (inactive) throughout. Moreover, the GI50 with SF-295, in the experiment on BT-549, with MDA-N, with NCI/ADR-RES, in the experiment on HL-60 and with MCF7 was > 100 µM (inactive) each time.
Consider `CC(C)CCNC(=O)c1ccc(CNC(=O)/C=C/c2cccc(Oc3ccccc3)c2)cc1`, for which the GI50 is 23.8 µM (inactive) in the experiment on UACC-62; 67.5 µM (inactive) in the experiment on IGROV-1; 11.6 µM (inactive) in the experiment on SF-539; > 100 µM (inactive) in the experiment on K562; 70.3 µM (inactive) in the experiment on DU-145; > 100 µM (inactive) in the experiment with Malme-3M. Besides, the GI50 was 34.3 µM (inactive) in the experiment with NCI-H23; 47.4 µM (inactive) with NCI-H226; 8.77 µM (inactive) with SR; 30.8 µM (inactive) with A498; 37.2 µM (inactive) with LOX IMVI; 28.4 µM (inactive) in the experiment with OVCAR-3. Moreover, the GI50 was 13.6 µM (inactive) in the experiment with MDA-MB-435; 23.8 µM (inactive) with SF-295; 60.1 µM (inactive) with BT-549; 34.9 µM (inactive) with SNB-75; 16.5 µM (inactive) in the experiment on MDA-N; 37.2 µM (inactive) in the experiment with NCI/ADR-RES. Moreover, the GI50 in the experiment with MCF7 was 36.5 µM (inactive).
Regarding `CC(=O)O[C@H]1C(=O)[C@@]2(C)[C@H]([C@H](OC(=O)c3ccccc3)[C@]3(O)C[C@H](OC(=O)[C@H](O)[C@@H](NC(=O)OC(C)(C)C)c4ccco4)C(C)=C1C3(C)C)[C@]1(OC(C)=O)CO[C@@H]1C[C@@H]2O`, the GI50 with UACC-62 is 0.0129 µM (active); in the experiment on IGROV-1, 0.00682 µM (active); in the experiment with SF-539 it was 0.00553 µM (active); in the experiment with K562 it was < 0.005 µM (active); in the experiment on DU-145, < 0.005 µM (active); in the experiment on Malme-3M, 6.61 µM (inactive). In addition, the GI50 with NCI-H23 is 0.00966 µM (active); with SR, 0.053 µM (active); in the experiment on A498 it was 2.47 µM (inactive); in the experiment on LOX IMVI, 0.00546 µM (active); in the experiment with OVCAR-3 it was 0.00769 µM (active); in the experiment on MDA-MB-435 it was < 0.005 µM (active). Also, the GI50 was 0.00687 µM (active) in the experiment with SF-295; < 0.005 µM (active) in the experiment on BT-549; < 0.005 µM (active) with SNB-75; < 0.005 µM (active) with MDA-N; 0.0185 µM (active) in the experiment on NCI/ADR-RES; < 0.005 µM (active) in the experiment on HL-60. The GI50 in the experiment with MCF7 is < 0.005 µM (active).
Regarding `CCOC(=O)N/N=C(/OCC)c1ccccc1`, the GI50 with UACC-62, in the experiment on IGROV-1, in the experiment with SF-539, in the experiment with K562, in the experiment on DU-145 and in the experiment with Malme-3M was > 100 µM (inactive) throughout. Besides, the GI50 with NCI-H23, in the experiment on NCI-H226, in the experiment on SR, with A498, with LOX IMVI and in the experiment with OVCAR-3 was > 100 µM (inactive) each time. For the same molecule, the GI50 in the experiment with MDA-MB-435, in the experiment with SF-295, with BT-549, with MDA-N, in the experiment on NCI/ADR-RES and in the experiment on HL-60 was > 100 µM (inactive) in each case. The GI50 with MCF7 was > 100 µM (inactive).
Regarding `O=C1O[C@H](COC(=O)c2ccccc2)[C@@H](OC(=O)c2ccccc2)C=C1OC(=O)c1ccccc1`, the GI50 was 20.7 µM (inactive) with UACC-62; 21.5 µM (inactive) with IGROV-1; 17.6 µM (inactive) in the experiment on SF-539; 24.3 µM (inactive) in the experiment with K562; 36.6 µM (inactive) in the experiment with DU-145; 18.1 µM (inactive) in the experiment on NCI-H23. In addition, the GI50 was 21.5 µM (inactive) in the experiment on NCI-H226; 18.5 µM (inactive) in the experiment on SR; 55.7 µM (inactive) in the experiment on A498; 19.8 µM (inactive) in the experiment with LOX IMVI; 18.3 µM (inactive) in the experiment with OVCAR-3; 25 µM (inactive) in the experiment on MDA-MB-435. The GI50 with SF-295 was 17.8 µM (inactive); in the experiment with BT-549 it was 16.4 µM (inactive); with SNB-75, 25.8 µM (inactive); in the experiment on MDA-N it was 31.7 µM (inactive); in the experiment with NCI/ADR-RES, 18.9 µM (inactive); in the experiment with HL-60 it was 10.5 µM (inactive). Besides, the GI50 in the experiment on MCF7 was 28.8 µM (inactive).
For the molecule `C[C@]12CC[C@H]3[C@@H](CCC4=CC(=O)CC[C@@]43C)[C@@H]1CC[C@@H]2C(=O)Nc1ccc([N+](=O)[O-])c(C(F)(F)F)c1`, the GI50 in the experiment with UACC-62 is 15.3 µM (inactive); in the experiment on IGROV-1, 22.8 µM (inactive); in the experiment with SF-539, 18.7 µM (inactive); in the experiment on K562 it was 26.6 µM (inactive); in the experiment on DU-145, 20.7 µM (inactive); in the experiment on Malme-3M it was 15.6 µM (inactive). In addition, the GI50 in the experiment with NCI-H23 was > 10 µM (inactive); in the experiment on NCI-H226, 21.2 µM (inactive); in the experiment on SR, 23.7 µM (inactive); in the experiment with A498, 17.6 µM (inactive); with LOX IMVI it was 15.8 µM (inactive); in the experiment on OVCAR-3, 22.8 µM (inactive). Besides, the GI50 in the experiment on MDA-MB-435 was 18 µM (inactive); with SF-295, 17.1 µM (inactive); in the experiment with BT-549, 19.4 µM (inactive); in the experiment with MDA-N it was > 10 µM (inactive); with NCI/ADR-RES, 13.3 µM (inactive); in the experiment with HL-60, 39.4 µM (inactive). Also, the GI50 in the experiment with MCF7 is 16.3 µM (inactive).
